In patent publication US6956033B2, “3,4-dihydroisoquinoline derivative compound and a pharmaceutical agent comprising it as active ingredient” (Ono Pharmaceutical Co., Ltd., priority 2000, dated 2005) one finds IC50 data, which are given here for three compounds.

A word on the IC50: it is the concentration that gives 50% inhibition.

The test has as its target T1, Human CB2 receptors (Homo sapiens, UniProt P34972).
T1 construct: expressed in transfected cells; host or cells: CHO cells
The test is described as follows: In vitro signaling assay: inhibition of forskolin-induced cAMP production in human CB2 receptor expressing CHO cells. The settings on record: inhibition of 10 μM forskolin-induced cAMP production, human CB2 receptors expressed CHO cells, cAMP EIA. Format: cell-based. The protocol: It was confirmed by the following experiment that the compound of formula (I) of the present invention has CB2 receptor agonist activity.
Method for the Experiment:
Human CB2 receptors expressed CHO cells were used for the assays. Cells were dispersed seeded in 96-well plates in a density of 5×10^4 cells/well, and were subjected to experiment the next day. After removing the culture media 1 mM isobutylmethylxanthine (IBMX) solution was added, and cells were incubated for 10 minutes at room temperature. Next, a mixture of 10 μM forskolin and the compound of the present invention was added. After additional incubation for 15 minutes at room temperature, the culture supernatant was discarded and 200 μl of lysis reagent (attached to a cAMP EIA) was added. The amounts of cAMP of the lysate were determined by a cAMP EIA kit (Amersham) under conditions of the forskolin-induced cAMP production. The compound of the present invention was dissolved in DMSO and the solution was diluted to adjust the final concentration of DMSO to 0.1%. IC50 values were calculated from the inhibitory ratio of the compound of the present invention toward the amount of the forskolin-induced cAMP production. By the same experiment using CHO cells, it was confirmed that this inhibitory effect toward cAMP production by the compound was mediated via the human CB2 receptors.

T1 sequence (P34972 whole entry): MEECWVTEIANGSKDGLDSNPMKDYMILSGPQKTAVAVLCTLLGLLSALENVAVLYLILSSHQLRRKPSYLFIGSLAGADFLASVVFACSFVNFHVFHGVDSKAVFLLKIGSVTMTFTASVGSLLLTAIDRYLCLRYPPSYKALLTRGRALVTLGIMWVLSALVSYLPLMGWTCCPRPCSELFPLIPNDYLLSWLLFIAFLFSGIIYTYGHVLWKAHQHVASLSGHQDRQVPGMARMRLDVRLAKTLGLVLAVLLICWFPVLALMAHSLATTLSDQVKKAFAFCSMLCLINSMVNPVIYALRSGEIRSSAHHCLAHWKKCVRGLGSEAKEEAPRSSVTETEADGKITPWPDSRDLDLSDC

As for `O=C(/C=C1\NC2(CCOCC2)Cc2ccccc21)c1ccccc1` [1(33), (Z)-2-(spiro[3,4-dihydro-(2H)-isoquinolin-3,4′-3,4,5,6-tetrahydropyran]-1-ylidene)-1-phenylethan-1-one], the IC50 stood at 0.8 nM. As for `CC1(C)Cc2ccccc2/C(=C/C(=O)C2CCCCCC2)N1` [1(11), (Z)-2-(3,3-dimethyl-3,4-dihydro-(2H)-isoquinolin-1-ylidene)-1-cycloheptylethan-1-one], the figure is 0.4 nM; as for `CC1(C)Cc2ccccc2/C(=C/C(=O)C2CCCCC2)N1` [compound 1], 2.4 nM.
